Assay results taken from US20230181564A1, “Potent Tetrahydroquinolone Eliminates Apicomplexan Parasites” (The University of Chicago, priority 2020, published 2023).
Values after ≈ are worked out from the molar mass of the structure shown.

Legend:
[1] = Kinetic/aqueous solubility in PBS pH 7.4; format: physicochemical; details: for PBS Sol pH7.4: solubility in Phosphate Buffered Saline pH 7.4, first value of cell
Description: PBS Sol/Toxicity pH7.4 refers to solubility of the compound in Phosphate Buffered Saline (PBS) at pH7.4. […] Parasites were RH-YFP expressing tachyzoites (Tachy) and EGS (Brady) strains. Studies of effects of inhibitors on HFF or on T.gondii tachyzoites were performed with triplicate wells in at least two biological replicate experiments. Studies of effects on bradyzoites were performed at least twice in at least two biological replicate experiments. Compounds with much less inhibition of mammalian than T. gondii cytochrome bc in the saffarine enzyme assay (indicated by **) provide potential to further develop compounds, if unanticipated toxicity occurs from JAG21.
Structure Activity Relationship (SAR) and comparison of effect on T.gondii and HFF enzyme activity. […] The MDCK-MDR1 Permeability Assay was also performed. […] These were measured by Chem Partners.

[2] = Metabolic stability in mouse liver microsomes; format: in vitro ADME; details: predicted half-life in mouse liver microsomes; no unit in table (101 minutes for JAG021)
[3] = tested on: Human Foreskin Fibroblast (HFF); test: Cytotoxicity assay with WST-1 on HFF; format: cell-based; details: WST assay, HFF; second value of cell
Description: PBS Sol/Toxicity pH7.4 refers to solubility of the compound in Phosphate Buffered Saline (PBS) at pH7.4. […] Tachy/Brady IC50 was determined in studies in which cultures of parasites in HFF were treated with varying concentrations of the compound and there was 50% inhibition of the replication (number) of parasites. Parasites were RH-YFP expressing tachyzoites (Tachy) and EGS (Brady) strains. Studies of effects of inhibitors on HFF or on T.gondii tachyzoites were performed with triplicate wells in at least two biological replicate experiments. Studies of effects on bradyzoites were performed at least twice in at least two biological replicate experiments. Compounds with much less inhibition of mammalian than T. gondii cytochrome bc in the saffarine enzyme assay (indicated by **) provide potential to further develop compounds, if unanticipated toxicity occurs from JAG21.
Cytotoxicity Assays in parallel with RH Strain T.gondii in vitro studies. Toxicity assays used WST-1 cell proliferation reagent (Roche) as in Fomovska et al. (2012). HFF were grown on a flat, clear-bottomed, black 96-well plate. Confluent HFF were treated with inhibitory compounds at concentrations of 10 μM and 50 μM. Compounds were diluted in IMDM-C, and 20 μL were added to each designated well, with triplicates for each condition. A gradient with 2 fold-decreasing concentrations of DMSO from 10% to 0% in colorless, translucent IMDM-C was used as a control. The plate was incubated for 72 hours at 37° C. 10 μL WST-1 reagent (Roche) were added to each well. Cells were incubated for 30-60 minutes. Absorbance was read using a fluorimeter at 420 nm. A higher degree of color change (and absorbance) indicated mitochondrial activity and cell viability.
Because T. gondii grows inside cells, if a compound were toxic to host HFF then it would make the compound appear to be spuriously effective (Fomovska et al. 2012; Fomovska et al. 2012a), when in actuality only toxicity for the host cell would be measured. Cytotoxicity to HFF was therefore assessed for all compounds at 10 μM. Results of this experiment are in Table 1, toxicity column. A two-way ANOVA and subsequent pairwise comparison found none of the differences in absorbance, compared to the media-DMSO vehicle controls, to be statistically significant (p>0.05). Most of these compounds are not toxic at 10 μM (the limit of solubility) and that cytotoxicity to cells can be attributed to DMSO in the solution, not the compound.

SMILES | PBS Sol pH7.4 [1] [μM] | Toxicity* (highest concentration tested that does not show toxicity to HFF) [3] | also measured
CCC1CCc2c([nH]c(C)c(-c3ccc(Oc4ccc(OC(F)(F)F)cc4)cc3)c2=O)C1 (stereo not shown) [JAG121] | 0.16 |  | T1/2 (M) [2]: 63.28
CCOC(=O)Oc1c2c(nc(C)c1-c1ccc(Oc3ccc(OC(F)(F)F)cc3)cc1)CCCC2 [JAG171] |  | ND/5 μM | 
Cc1c(-c2ccc(Oc3ccc(Cl)cc3)cc2)c(=O)c2c(n1C)CCCC2 [JAG077] |  | ND/5 μM | 
O=c1c2c([nH]c(CO)c1-c1ccc(Oc3ccc(OC(F)(F)F)cc3)cc1)CC(C(F)(F)F)CC2 (stereo not shown) [JAG187] |  | ND/5 μM | 
COc1ccc(Oc2ccc(-c3c(C)[nH]c4c(c3=O)CCCC4)cc2)cc1OC [AS033] |  | ND/5 μM | 
Cc1[nH]c2c(c(=O)c1-c1ccc(Oc3cccc(C(F)(F)F)c3)cc1)CCCC2 [AS012] | 2.19 |  | T1/2 (M) [2]: 30.05
Cc1[nH]c2c(c(=O)c1-c1ccc(Oc3cc(Cl)cc(Cl)c3)cc1)CCCC2 [AS022] | 6.25 |  | T1/2 (M) [2]: 28.62
Cc1[nH]c2cnccc2c(=O)c1-c1ccc(Oc2ccc(OC(F)(F)F)cc2)cc1 [JAG129] | 5.12 |  | 
Cc1[nH]c2c(c(=O)c1-c1ccc(Oc3ccc(OC(F)(F)F)cc3)cc1)CCC(C(F)(F)F)C2 (stereo not shown) [JAG162] | 0.02 |  | T1/2 (M) [2]: 144.43
CCC1CCc2c([nH]c(CO)c(-c3ccc(Oc4ccc(OC(F)(F)F)cc4)cc3)c2=O)C1 (stereo not shown) [JAG174] |  | ND/5 μM | 
Cc1[nH]c2c(c(=O)c1-c1ccc(Oc3ccc(OC(F)(F)F)cc3)cc1)CC(C)CC2 (stereo not shown) [JAG106] |  | ND/5 μM | 
Cc1[nH]c2c(c(=O)c1-c1cccc(Oc3ccc(C(F)(F)F)cc3)c1)CCCC2 [NP035] |  | ND/5 μM | 
Cc1[nH]c2c(c(=O)c1-c1ccc(Oc3ccc4c(c3)OCO4)cc1)CCCC2 [AS032] |  | ND/5 μM | 
Cc1[nH]c2c(C#N)cnn2c(=O)c1-c1ccc(Oc2ccc(OC(F)(F)F)cc2)cc1 [JAG014] |  | ND/5 μM | 
Cc1[nH]c2c(c(=O)c1-c1ccc(Oc3cccc(F)c3)cc1)CCCC2 [JAG069] | 0.5 |  | T1/2 (M) [2]: 17.38
O=c1[nH]c2c(c(=O)n1-c1ccc(Oc3ccccc3)cc1)CCCC2 [JAG095] |  | ND/5 μM | 
Cc1[nH]c2ncnn2c(=O)c1-c1ccc(Oc2ccc(OC(F)(F)F)cc2)cc1 [MJM136] |  | ND/5 μM | 
Cc1[nH]c2c(c(=O)c1-c1ccc(Oc3cc(Cl)nc(Cl)c3)cc1)CCCC2 [AS034] | 5.05 |  | T1/2 (M) [2]: 24.93
Cc1[nH]c2c(c(=O)c1-c1ccc(Oc3cc(Cl)cc(Cl)c3)cc1)CCC(C)C2 (stereo not shown) [JAG208] |  | ND/5 μM | 
CC1CCc2c([nH]c(CO)c(-c3ccc(Oc4ccc(OC(F)(F)F)cc4)cc3)c2=O)C1 (stereo not shown) [JAG193] |  | ND/5 μM | 
Cc1[nH]c2c(c(=O)c1-c1cccc(Oc3ccc(Cl)cc3)c1)CCCC2 [NP034] |  | ND/5 μM | 
Cc1[nH]c2c(c(=O)c1-c1ccc(Oc3ccc(F)c(Cl)c3)cc1)CCCC2 [AS021] | 2 |  | T1/2 (M) [2]: 41.09

SMILES | PBS Sol pH7.4 [1] [μM] | Toxicity* (highest concentration tested that does not show toxicity to HFF) [3] | also measured
Cc1[nH]c2c(c(=O)c1-c1ccc(Oc3ccc(OC(F)(F)F)cc3)nc1)CCCC2 [JAG092] |  | ND/5 μM | 
Cc1[nH]c2c(c(=O)c1-c1ccc(Oc3ccc(Cl)c(Cl)c3)cc1)CCCC2 [JAG084] | 0.68 |  | T1/2 (M) [2]: 63.1
Cc1[nH]c2c(c(=O)c1-c1ccc(Oc3cccc(Cl)c3)cc1)CCCC2 [JAG062] | 0.33 |  | T1/2 (M) [2]: 12.42
Cc1[nH]c2ccnn2c(=O)c1-c1ccc(Oc2ccc(OC(F)(F)F)cc2)cc1 [MJM141] | 0.94 |  | 
Cc1[nH]c2c(c(=O)c1-c1ccc(Oc3ccc(F)cc3)cc1)CCCC2 [JAG058] | 2.38 |  | T1/2 (M) [2]: 39.17
Cc1cc2[nH]c(C)c(-c3ccc(Oc4ccc(OC(F)(F)F)cc4)cc3)c(=O)n2n1 [JAG006] |  | ND/5 μM | 
Cc1[nH]c2c(c(=O)c1-c1cccc(Oc3ccc(OC(F)(F)F)cc3)c1)CCCC2 [NP032] |  | ND/5 μM | 
Cc1[nH]c2c(c(=O)c1-c1cccc(Oc3ccc(F)c(Cl)c3)c1)CCCC2 [JAG200] |  | ND/5 μM | 
Cc1[nH]c2cc(-c3ccccc3)nn2c(=O)c1-c1ccc(Oc2ccc(OC(F)(F)F)cc2)cc1 [JAG015] |  | ND/5 μM | 
Cc1[nH]c2ccccc2c(=O)c1-c1ccc(Oc2ccc(OC(F)(F)F)cc2)cc1 [ELQ271, reference compound] | 0.15 |  | solubility ([1]; amorphous compounds): 0.2 µM (≈ 0.0823 µg/mL)
Cc1[nH]c2c(c(=O)c1-c1ccc(Oc3ccc(C(=O)O)cc3)nc1)CCCC2 [JAG022] |  | ND/5 μM | 
Cc1[nH]c2c(c(=O)c1-c1ccc(Oc3ccc(OC(F)(F)F)cc3)cc1)CCC(C)C2 (stereo not shown) [JAG107] | 0.03 |  | T1/2 (M) [2]: 111.93
Cc1[nH]c2c(c(=O)c1-c1ccc(Oc3cccc(OC(F)(F)F)c3)cc1)CCCC2 [AS006] | 0.55 |  | T1/2 (M) [2]: 25.88
Cc1[nH]c2c(c(=O)c1-c1cccc(Oc3cc(Cl)cc(Cl)c3)c1)CCCC2 [JAG199] |  | ND/5 μM | 
Cc1[nH]c2ccccc2c(=O)c1-c1ccc(Oc2ccccc2)cc1 [MJM129] |  | ND/5 μM | 
Cc1[nH]c2c(c(=O)c1-c1ccc(OCc3ccccc3)cc1)CCCC2 [JAG204] |  | ND/5 μM | 
Cc1[nH]c2c(c(=O)c1-c1ccc(O)cc1)CCCC2 [JAG094] |  | ND/5 μM | 
Cc1c(-c2ccc(Oc3ccc(OC(F)(F)F)cc3)cc2)c(=O)c2c(n1C)CCCC2 [JAG023] |  | ND/5 μM | 
Cc1[nH]c2c(c(=O)c1-c1ccc(Oc3ccc(OC(F)(F)F)cc3)cc1)CC(C(F)(F)F)CC2 (stereo not shown) [JAG100] |  | ND/5 μM | 
Cc1[nH]c2c(c(=O)c1-c1ccc(Oc3ccc(C(F)(F)F)cc3)cc1)CCCC2 [JAG063] | 0.45 |  | T1/2 (M) [2]: 126.96
CSc1nc2[nH]c(C)c(-c3ccc(Oc4ccc(OC(F)(F)F)cc4)cc3)c(=O)n2n1 [JAG013] |  | ND/5 μM | 
O=C(O)c1[nH]c2c(c(=O)c1-c1ccc(Oc3ccc(OC(F)(F)F)cc3)cc1)CCCC2 [JAG091] |  | ND/5 μM | 
